Tests used:
[1] = system: cells; assay: Cell viability, CCK-8 kit; type: cell-based; details: Cy3-Glc-α 12.5 μM
Description: (2) Therefore, Cy3-Glc-α should not affect cell viability. The viability of cells treated with Cy3-Glc-α (12.5 μM) by using a CCK-8 kit (Cell Counting Kit-8, Dojindo, Japan) was measured by using an ELISA plate reader (ELx800™, BioTex, USA) DP. CCK-8 is a colorimetric assay for determining the number of viable cells in cell proliferation and cytotoxicity assays. The principle of measuring cell viability of CCK-8 is the same as that of MTT. However, CCK-8 is more sensitive than MTT.

[2] = system: A549 cells; assay: Cy3-Glc-α intracellular uptake efficiency, confocal laser scanning microscope (CLSM); type: cell-based, human; details: CLSM live-cell imaging
Description: 1×10^4 cells were cultured on a Lab-Tek glass chamber slide (Nalge Nunc International, Naperville, Ind., USA) in 35 mm cell culture dish. After 24 h, the glass chamber slide was taken from culture dish and loaded on chamber. Then, the chamber was attached to the microscope. The temperature of the chamber was maintained at 37° C. After injection of 12.5 μM of Cy3-Glc-α in RPMI 1640 in the chamber, the fluorescent image was taken every 60 sec, digitized, and saved on a computer for later analysis.
(1) To evaluate the applicability of the fluorescent glucose analogue (Cy3-Glc-α) of the present invention, finally obtained in Example 1, as a bioprobe, the intracellular uptake efficiency of Cy3-Glc-α was measured by using a confocal laser scanning microscope (CLSM).
(2) In addition, the experiment was performed by using the confocal laser scanning microscope to measure the optimum incubation time required to achieve the maximum uptake of the analogue Cy3-Glc-α.

[3] = system: NIH/3T3 cells; assay: FACS-based flow cytometric analysis of probe uptake with/without 11 mM D-glucose; type: cell-based, murine; details: probe 5 μM; glucose-depleted condition normalized to 100
Description: FACS (Fluorescence Activated Cell Sorting)-based flow cytometric analysis was used to compare cellular uptake efficiency in NIH/3T3 cells among the glucose probe [2-(N-Cy3-piperazinoethyl)]-α-D-glucose (GB2-Cy3), synthesized in Example 2, the conventional fluorescent glucose probe 2-NBDG and the glucose probe Cy3-Glc-α, synthesized in Example 1.
NIH/3T3 cells were cultured on 10 cm cell culture dishes and transferred in a volume of 3×10^5 cells into each FACS tube (5 mL, BD). They were washed once with cold PBS before incubation at 37° C. for 30 min in 11 mM D-glucose-containing PBS or glucose-free PBS in the presence of the bioprobe [GB2-Cy3 (5 μM), 2-NBDG (5 μM or 50 μM) or Cy3-Glc-α (5 μM)]. Cells that were incubated without the bioprobes were used as a negative control. After being washed with cold PBS, 1×10^4 NIH/3T3 cells were analyzed on FACSCalibur™ (FACS-based flow cytometer). GBs-Cy3 was detected by FL2 channels. Raw data of 1×10^4 cells are shown in histograms, with the mean values thereof given in the graph of FIG. 21.

C[N+]1=C(/C=C/C=C2/N(CCCCC(=O)NCCOCCOCCNCCOC3OC(CO)C(O)C(O)C3O)c3ccccc3C2(C)C)C(C)(C)c2ccccc21 [Cy3-Glc-α, [2-(N-Cy3-3,6-dioxaoctane-1,8-diaminoethyl)]-α-D-glucose]
cell viability [1]: does not affect cell viability
incubation time to maximum uptake [2]: ≤ 35 min
reduction in cellular uptake due to 11 mM D-glucose [3]: about 50%
